Our source for the IC50 values is ChEMBL document CHEMBL4619722, “Alanine scan-guided synthesis and biological evaluation of analogues of culicinin D, a potent anticancer peptaibol” (Bioorg Med Chem Lett, 2020).

In general, IC50 refers to the concentration that gives 50% inhibition.

Numbered stars: 1 amine (or outer) side, 2 acyl side, 3 side chain; on linkers, the order of the positions; unused ones are H or OH. Square brackets hold non-standard residues; d marks the D form. Peptide text beside a SMILES is read from it. * marks the point of attachment. ξ: configuration not given here. X1 = CCC(=O)C[C@H](O)C[C@@H](C)C[C@H](N[*:1])C(=O)[*:2]; Gly(1-adamantyl) = N[C@H](C(=O)O)C12CC3CC(CC(C3)C1)C2; Nva(5-pentanoyl) = CCCCC(=O)CCC[C@H](N)C(=O)O; NH((S)CH(Me)CH2NHC2H4OH) = C[C@@H](CNCCO)N*; Gly(octyl) = CCCCCCCC[C@H](N)C(=O)O; Ala(cPr) = N[C@@H](CC1CC1)C(=O)O; Cha = N[C@@H](CC1CCCCC1)C(=O)O; Chg = N[C@H](C(=O)O)C1CCCCC1; Ac6c = NC1(C(=O)O)CCCCC1; Nva = CCC[C@H](N)C(=O)O; Ac4c = NC1(C(=O)O)CCC1; Aib = CC(C)(N)C(=O)O; Butyryl = CCCC(=O)*; ξP = O=C(O)C1CCCN1; βAla = NCCC(=O)O

Holding throughout (format): functional, cell-based
The test system of one assay is T47D. Nature of the assay: Antiproliferative activity against human T47D cells.
The next assay deals with NCI-H460. As to the kind of experiment: Antiproliferative activity against human NCI-H460 cells.
A further assay deals with MDA-MB-468. Nature of the assay: Antiproliferative activity against human MDA-MB-468 cells.
The subject of the next assay is SK-BR-3. Nature of the assay: Antiproliferative activity against human SKBR3 cells.

On to `CCCCCCCC[C@H](NC(=O)C(C)(C)NC(=O)C(C)(C)NC(=O)[C@H](Cc1ccc(O)cc1)NC(=O)[C@@H]1CCCN1C(=O)CCC)C(=O)N[C@@H](CC(C)C)C(=O)NC(C)(C)C(=O)N[C@@H](CC(C)C)C(=O)NCCC(=O)N[C@@H](C)CNCCO` (Butyryl-PY[Aib][Aib][Gly(octyl)]L[Aib]L[βAla]-{NH((S)CH(Me)CH2NHC2H4OH)}), for which the IC50 with T47D amounted to 32 nM; with NCI-H460, 71 nM; in the assay on MDA-MB-468, 35 nM; in the assay with SK-BR-3 it was 155 nM.
For `CCCCCCCC[C@H](NC(=O)C(C)(C)NC(=O)C(C)(C)NC(=O)[C@H](CCCC(=O)CCCC)NC(=O)C1CCCN1C(=O)CCC)C(=O)N[C@@H](CC(C)C)C(=O)N[C@@H](C)C(=O)N[C@@H](CC(C)C)C(=O)NCCC(=O)N[C@@H](C)CNCCO` (stereo partly drawn) (Butyryl-[ξP][Nva(5-pentanoyl)][Aib][Aib][Gly(octyl)]LAL[βAla]-{NH((S)CH(Me)CH2NHC2H4OH)}) the same measures were > 1000 nM, 266 nM, > 1000 nM and > 1000 nM.
Turning to `CCCCCCCC[C@H](NC(=O)C(C)(C)NC(=O)C(C)(C)NC(=O)[C@H](C[C@H](C)C[C@@H](O)CC(=O)CC)NC(=O)[C@@H]1CCCN1C(=O)CCC)C(=O)N[C@@H](CC(C)C)C(=O)NC(C)(C)C(=O)N[C@@H](CC(C)C)C(=O)NCCC(=O)N[C@@H](C)CNCCO` (Butyryl-P[X1][Aib][Aib][Gly(octyl)]L[Aib]L[βAla]-{NH((S)CH(Me)CH2NHC2H4OH)}), the IC50 with T47D was 3 nM; in the assay on NCI-H460, 8 nM; in the assay with MDA-MB-468 it was 4 nM; with SK-BR-3 it was 25 nM.
For the compound `CCCC(=O)N1CCC[C@H]1C(=O)N[C@@H](C[C@H](C)C[C@@H](O)CC(=O)CC)C(=O)NC(C)(C)C(=O)NC(C)(C)C(=O)N[C@H](C(=O)N[C@@H](CC(C)C)C(=O)NC(C)(C)C(=O)N[C@@H](CC(C)C)C(=O)NCCC(=O)N[C@@H](C)CNCCO)[C@@H](C)CC` (Butyryl-P[X1][Aib][Aib]IL[Aib]L[βAla]-{NH((S)CH(Me)CH2NHC2H4OH)}), the IC50 in the assay with T47D was 251 nM; in the assay with NCI-H460 it was > 500 nM; with MDA-MB-468 it was 142 nM; with SK-BR-3, > 1000 nM.
For `CCCCCCCC[C@H](NC(=O)C(C)(C)NC(=O)C(C)(C)NC(=O)[C@H](CC1CCCCC1)NC(=O)[C@@H]1CCCN1C(=O)CCC)C(=O)N[C@@H](CC(C)C)C(=O)NC(C)(C)C(=O)N[C@@H](CC(C)C)C(=O)NCCC(=O)N[C@@H](C)CNCCO` (Butyryl-P[Cha][Aib][Aib][Gly(octyl)]L[Aib]L[βAla]-{NH((S)CH(Me)CH2NHC2H4OH)}), in that order: 4 nM, 2 nM, 3 nM and 12 nM.
As for `CCCC(=O)N1CCC[C@H]1C(=O)N[C@@H](C[C@H](C)C[C@@H](O)CC(=O)CC)C(=O)NC(C)(C)C(=O)NC(C)(C)C(=O)N[C@@H](CCC)C(=O)N[C@@H](CC(C)C)C(=O)NC(C)(C)C(=O)N[C@@H](CC(C)C)C(=O)NCCC(=O)N[C@@H](C)CNCCO` (Butyryl-P[X1][Aib][Aib][Nva]L[Aib]L[βAla]-{NH((S)CH(Me)CH2NHC2H4OH)}), the IC50 with T47D is 420 nM; in the assay on NCI-H460, > 1000 nM; with MDA-MB-468, 274 nM; in the assay on SK-BR-3 it was > 1000 nM.
`CCCCCCCC[C@H](NC(=O)C(C)(C)NC(=O)C(C)(C)NC(=O)[C@H](CCCC(=O)CCCC)NC(=O)C1CCCN1C(=O)CCC)C(=O)N[C@@H](CC(C)C)C(=O)NC(C)(C)C(=O)N[C@@H](CC(C)C)C(=O)N[C@@H](C)C(=O)N[C@@H](C)CNCCO` (stereo partly drawn) (Butyryl-[ξP][Nva(5-pentanoyl)][Aib][Aib][Gly(octyl)]L[Aib]LA-{NH((S)CH(Me)CH2NHC2H4OH)}): the IC50 in the assay with T47D came to 21 nM; in the assay with NCI-H460 it was 16 nM; in the assay with MDA-MB-468, 26 nM; in the assay with SK-BR-3 it was 36 nM.
On to `CCCCCCCC[C@H](NC(=O)C(C)(C)NC(=O)C(C)(C)NC(=O)C1(NC(=O)[C@@H]2CCCN2C(=O)CCC)CCC1)C(=O)N[C@@H](CC(C)C)C(=O)NC(C)(C)C(=O)N[C@@H](CC(C)C)C(=O)NCCC(=O)N[C@@H](C)CNCCO` (Butyryl-P[Ac4c][Aib][Aib][Gly(octyl)]L[Aib]L[βAla]-{NH((S)CH(Me)CH2NHC2H4OH)}), for which the IC50 with T47D was 17 nM; in the assay on NCI-H460, 19 nM; in the assay with MDA-MB-468, 16 nM; in the assay on SK-BR-3, 68 nM.
Consider `CCCCCCCC[C@H](NC(=O)C(C)(C)NC(=O)C(C)(C)NC(=O)[C@@H](NC(=O)[C@@H]1CCCN1C(=O)CCC)C1CCCCC1)C(=O)N[C@@H](CC(C)C)C(=O)NC(C)(C)C(=O)N[C@@H](CC(C)C)C(=O)NCCC(=O)N[C@@H](C)CNCCO` (Butyryl-P[Chg][Aib][Aib][Gly(octyl)]L[Aib]L[βAla]-{NH((S)CH(Me)CH2NHC2H4OH)}), for which the IC50 with T47D amounted to 8 nM; with NCI-H460, 6 nM; with MDA-MB-468, 10 nM; in the assay on SK-BR-3, 21 nM.
For `CCCCCCCC[C@H](NC(=O)C(C)(C)NC(=O)C(C)(C)NC(=O)[C@H](C)NC(=O)C1CCCN1C(=O)CCC)C(=O)N[C@@H](CC(C)C)C(=O)NC(C)(C)C(=O)N[C@@H](CC(C)C)C(=O)NCCC(=O)N[C@@H](C)CNCCO` (stereo partly drawn) (Butyryl-[ξP]A[Aib][Aib][Gly(octyl)]L[Aib]L[βAla]-{NH((S)CH(Me)CH2NHC2H4OH)}) the same measures were 61 nM, 71 nM, 68 nM and 343 nM.
As for `CCCCCCCC[C@H](NC(=O)C(C)(C)NC(=O)C(C)(C)NC(=O)[C@H](CCCC(=O)CCCC)NC(=O)C1CCCN1C(=O)CCC)C(=O)N[C@@H](CC(C)C)C(=O)NC(C)(C)C(=O)N[C@@H](CC(C)C)C(=O)NCCC(=O)N[C@@H](C)CNCCO` (stereo partly drawn) (Butyryl-[ξP][Nva(5-pentanoyl)][Aib][Aib][Gly(octyl)]L[Aib]L[βAla]-{NH((S)CH(Me)CH2NHC2H4OH)}), the IC50 in the assay on T47D stood at 11 nM; in the assay with NCI-H460, 18 nM; in the assay with MDA-MB-468 it was 20 nM; in the assay with SK-BR-3, 47 nM.
On to `CCCCCCCC[C@H](NC(=O)C(C)(C)NC(=O)C(C)(C)NC(=O)[C@@H](NC(=O)[C@@H]1CCCN1C(=O)CCC)C12CC3CC(CC(C3)C1)C2)C(=O)N[C@@H](CC(C)C)C(=O)NC(C)(C)C(=O)N[C@@H](CC(C)C)C(=O)NCCC(=O)N[C@@H](C)CNCCO` (Butyryl-P[Gly(1-adamantyl)][Aib][Aib][Gly(octyl)]L[Aib]L[βAla]-{NH((S)CH(Me)CH2NHC2H4OH)}), for which the IC50 in the assay with T47D was determined as 16 nM; with NCI-H460 it was 17 nM; in the assay with MDA-MB-468, 21 nM; with SK-BR-3, 72 nM.
As to `CCCCCCCC[C@H](NC(=O)C(C)(C)NC(=O)C(C)(C)NC(=O)[C@H](CC1CC1)NC(=O)[C@@H]1CCCN1C(=O)CCC)C(=O)N[C@@H](CC(C)C)C(=O)NC(C)(C)C(=O)N[C@@H](CC(C)C)C(=O)NCCC(=O)N[C@@H](C)CNCCO` (Butyryl-P[Ala(cPr)][Aib][Aib][Gly(octyl)]L[Aib]L[βAla]-{NH((S)CH(Me)CH2NHC2H4OH)}), the IC50 worked out at 10 nM in the assay with T47D, 8 nM with NCI-H460, 10 nM in the assay with MDA-MB-468 and 29 nM in the assay on SK-BR-3.
Consider `CCCCCCCC[C@H](NC(=O)C(C)(C)NC(=O)C(C)(C)NC(=O)C1(NC(=O)[C@@H]2CCCN2C(=O)CCC)CCCCC1)C(=O)N[C@@H](CC(C)C)C(=O)NC(C)(C)C(=O)N[C@@H](CC(C)C)C(=O)NCCC(=O)N[C@@H](C)CNCCO` (Butyryl-P[Ac6c][Aib][Aib][Gly(octyl)]L[Aib]L[βAla]-{NH((S)CH(Me)CH2NHC2H4OH)}), for which the IC50 with T47D stood at 25 nM; in the assay on NCI-H460 it was 39 nM; in the assay on MDA-MB-468 it was 31 nM; in the assay on SK-BR-3 it was 96 nM.
`CCCCCCCC[C@H](NC(=O)C(C)(C)NC(=O)C(C)(C)NC(=O)[C@H](CCCC(=O)CCCC)NC(=O)[C@H](C)N)C(=O)N[C@@H](CC(C)C)C(=O)NC(C)(C)C(=O)N[C@@H](CC(C)C)C(=O)NCCC(=O)N[C@@H](C)CNCCO` (H-A[Nva(5-pentanoyl)][Aib][Aib][Gly(octyl)]L[Aib]L[βAla]-{NH((S)CH(Me)CH2NHC2H4OH)}): the 50% inhibitory concentration (IC50) with T47D turned out to be 6 nM; in the assay on NCI-H460 it was 5 nM; in the assay on MDA-MB-468, 7 nM; with SK-BR-3, 18 nM.
As to `CCCCCCCC[C@H](NC(=O)C(C)(C)NC(=O)C(C)(C)NC(=O)[C@H](CCSC)NC(=O)[C@@H]1CCCN1C(=O)CCC)C(=O)N[C@@H](CC(C)C)C(=O)NC(C)(C)C(=O)N[C@@H](CC(C)C)C(=O)NCCC(=O)N[C@@H](C)CNCCO` (Butyryl-PM[Aib][Aib][Gly(octyl)]L[Aib]L[βAla]-{NH((S)CH(Me)CH2NHC2H4OH)}), the IC50 with T47D is 8 nM; with NCI-H460 it was 10 nM; in the assay with MDA-MB-468, 11 nM; with SK-BR-3 it was 43 nM.
Consider `CCCCCCCC[C@H](NC(=O)[C@@H]1CCCN1C(=O)CCC)C(=O)NC(C)(C)C(=O)NC(C)(C)C(=O)N[C@@H](CCCCCCCC)C(=O)N[C@@H](CC(C)C)C(=O)NC(C)(C)C(=O)N[C@@H](CC(C)C)C(=O)NCCC(=O)N[C@@H](C)CNCCO` (Butyryl-P[Gly(octyl)][Aib][Aib][Gly(octyl)]L[Aib]L[βAla]-{NH((S)CH(Me)CH2NHC2H4OH)}), for which the 50% inhibitory concentration (IC50) with T47D turned out to be 7 nM; with NCI-H460, 5 nM; with MDA-MB-468, 5 nM; in the assay with SK-BR-3, 15 nM.
